These are literature values, as cited in patent US20070197486A1, “Methods and systems for the delivery of corticosteroids” (Verus Pharmaceuticals, Inc., priority 2005, published 2007).

Like-named read-outs stand apart in the source and are kept apart here.

Take `CCCC1O[C@@H]2C[C@H]3[C@@H]4CCC5=CC(=O)C=C[C@]5(C)[C@H]4[C@@H](O)C[C@]3(C)[C@]2(C(=O)CO)O1` (stereo partly drawn) [budesonide, (R,S)-11β,16α,17,21-tetrahydroxypregna-1,4-diene-3,20-dione cyclic 16,17-acetal with butyraldehyde]: the solubility entry was “readily soluble” (in alcohols) and “virtually insoluble” (in water).
